In patent publication US5459256A, “Lipophilic, aminohydrolase-activated prodrugs” (priority 1991, dated 1995):

Tests used:
physchem = conditions: octanol/ph 7.0 buffer, pH 7, Log P
Description: Measurement of Octanol-Water Partition Coefficients.
n-Octanol-water partition coefficients (P) were determined by a microscale shake-flask procedure, (Ford, H. et al Abstracts of Papers, 200th National Meeting of the American Chemical Society, Washington, D.C.; American Chemical Society: Washington, D.C., 1990; CARB 13) which was modification of an earlier method (Nahum, A. & Horvath, C. J. Chromatogr. 1980, 192, 315). A 20 μL aliquot of a 0.5 mg/mL DMSO solution of the dideoxynucleoside was dissolved in 1.0 mL of octanol-saturated, pH 7.0, 0.01M potassium phosphate buffer. This was mixed thoroughly with 1.0 ml of buffer-saturated n-octanol in a 2-mL Mixxor apparatus at 24°-26° C. and then allowed to stand for 15 min. The phases were separated, centrifuged at 600×g for 5 min, and the relative concentration of sample in each phase determined by HPLC analysis of a 50 μl aliquot. The partition coefficient was calculated by dividing the absolute area of the appropriate integrated peak from the octanol phase by that of the buffer phase (Table I).
Octanol/pH 7.0 buffer partition coefficients were determined using a newly developed microscale method. […] The addition of a methyl group normally increases the log P value of a compound by about 0.5.

[1] = target: T1, adenosine deaminase (adenosine aminohydrolase, EC 3.5.4.4) (Bos taurus, UniProt P56658); experiment: Enzymatic deamination by adenosine deaminase (HPLC)
T1 sequence (P56658 1-363): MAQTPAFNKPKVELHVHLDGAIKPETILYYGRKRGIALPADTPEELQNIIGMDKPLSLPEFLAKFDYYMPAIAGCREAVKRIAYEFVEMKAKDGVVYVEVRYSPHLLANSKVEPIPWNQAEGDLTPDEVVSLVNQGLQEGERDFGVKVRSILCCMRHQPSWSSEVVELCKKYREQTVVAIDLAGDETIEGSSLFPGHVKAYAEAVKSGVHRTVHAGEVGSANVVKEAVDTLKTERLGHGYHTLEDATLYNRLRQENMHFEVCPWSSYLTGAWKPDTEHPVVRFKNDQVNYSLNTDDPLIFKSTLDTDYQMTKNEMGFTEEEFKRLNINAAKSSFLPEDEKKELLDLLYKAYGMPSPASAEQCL
Description: FIG. 1. Deamination of dideoxyadenosine analogues by adenosine deaminase. Hydrolysis kinetics and 2'-F-dd-ara-I formation during the incubation of 50 μM N^6 -CH3 -2'-F-dd-ara-A (1f) with 0.7 units/mL of adenosine deaminase at 37° C. A unit of adenosine deaminase is the amount of enzyme which hydrolyzes a standard substrate (e.g., adenosine) at the rate of 1.0 μmole/min at 25° C. and pH 7.5. […] Insert: Adenosine deaminase hydrolysis kinetics for 50 μM ddA and 2'-F-dd-ara-A. The hydrolysis curve for ddA has been extrapolated from kinetics obtained with 0.07 units/mL of adenosine deaminase under identical conditions.
A 50 μl aliquot of a 10 mg/ml suspension of adenosine deaminase (adenosine aminohydrolase, EC 3.5.4.4) from calf intestinal mucosa was centrifuged at 600×g for 3 min. The residue remaining after removal of the (NH4)2 SO4 supernatant was dissolved in 0.5 ml pH 7.4 tris(hydroxymethyl)-aminomethane (Tris) buffer to give an enzyme solution of 1 mg/ml (274 units/ml). […] A pH 7.4 buffer was prepared by adjusting 0.01M Tris to pH 7.4 with 0.5N HCl, The 1.0 HCl , HPLC-grade acetonitrile, monobasic potassium phosphate, sodium hydroxide and ultrapure Tris were all commercially available and were used without further purification.
Enzymatic Deamination of Adenosine Analogues. […] A 50 μL aliquot of substrate solution was diluted with 0.95 ml 0.01M Tris buffer in a 1.5-mL Eppendorf tube and equilibrated at 37° C. in a Dubnoff metabolic shaking incubator. Reaction was initiated by addition of 2.5 μL of adenosine deaminase solution (0.7 unit). At specified time intervals, a 50 μL aliquot of the reaction mixture was withdrawn and quenched by mixing with 0.45 mL cold 2 μM 2'-deoxycoformycin. This diluted sample was ultrafiltered to remove enzyme in a Centrifree Micropartition unit by centrifugation at 600×g at 4° C. in a high speed refrigerated centrifuge. The decrease in substrate concentration was monitored by HPLC analysis of the resultant ultrafiltrate (see below). The ability of 2'-deoxycoformycin to inhibit deamination under the above conditions was evaluated by adding 2 μL of 1.0 mM inhibitor to diluted substrate solutions at the time of equilibration. Reaction, sampling and analysis were carried out as above. […] Initial hydrolysis rates for each substrate concentration were measured through linear least-squares curve fitting of the concentration versus time data for reaction of the first 10% of substrate. KM and vmax values for each substrate were then determined from a graphical lineweaver-Burke plot of these initial rates (FIG. 1).
HPLC Analysis of Dideoxypurine Nucleosides.
Concentrations of dideoxynucleosides were measured by the HPLC analysis of 100 μL aliquots of ultrafiltered samples. A 4.6×250 mm 5-μm Ultrasphere-ODS column, protected by a Waters guard column packed with 37-50 μm Vydac 201SC, was eluted with 10-20% CH3 CN in 0.01M pH 7.0 phosphate buffer at a flow rate of 1.0 mL/min. Dideoxynucleosides and deamination products were detected at the appropriate wavelength of maximum absorption with a Gilson 116 variable wavelength detector. Peak identity was determined from coincidence of retention times with standards and by comparison of on-the-fly UV spectra obtained with a Perkin-Elmer LC-235 diode array detector. Peak areas and peak heights were measured simultaneously on a Spectra-Physics SP4200 computing integrator.

CNc1ncnc2c1ncn2[C@@H]1O[C@H](CO)C[C@@H]1F [Compound 1f, N^6 -Methyl-9-(2'3'-dideoxy-2'-fluoro-β-D-arabinofuranosyl)adenine]
logD (physchem): 0.27 ± 0.01 | Measured Relative Rate ([1]; 50 μM substrate, pH 7.4 and 37° C., ddA = 100): 0.04 | deamination product / product formation (in words) ([1]; 0.7 U/mL ADA, 37° C.): the corresponding inosine analogue, 1b, was the product formed | half-life at 50 µM ([1]; bovine, adenosine deaminase): 3 h | vmax ([1]; pH 7.4 and 37° C.): 5.5 × 10^-4 μmol/min/U | hydrolysis rate, times slower than 1a ([1]; vs 1a, 0.7 U/mL ADA, 37° C.): 135 times slower | binding to ADA, times tighter than 1i ([1]; vs 1i): about 70 times tighter | vmax, times slower than 1i ([1]; vs 1i): 50 times slower | hydrolysis by ADA, times slower than ddA ([1]; vs ddA, 50 μM substrate): ~2500 times slower
